Experimental findings from ChEMBL document CHEMBL1143548, “Synthesis and evaluation of potential inhibitors of eIF4E cap binding to 7-methyl GTP” (Bioorg Med Chem Lett, 2005) are described below.

Molecules are shown by their SMILES.

Sequence of Eukaryotic translation initiation factor 4E (P06730 whole entry): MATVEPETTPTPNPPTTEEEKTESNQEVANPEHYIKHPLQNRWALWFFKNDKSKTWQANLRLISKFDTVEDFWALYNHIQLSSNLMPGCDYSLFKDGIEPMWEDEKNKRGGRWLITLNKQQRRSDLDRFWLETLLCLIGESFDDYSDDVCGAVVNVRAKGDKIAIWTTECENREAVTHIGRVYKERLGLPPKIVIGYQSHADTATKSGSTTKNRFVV

The assay concerns the target Eukaryotic translation initiation factor 4E (Homo sapiens, UniProt P06730). As to the kind of experiment: Inhibitory concentration against 7-methyl-GTP binding to eukaryotic translation initiation factor 4E.
For `Nc1nc2c(c(=O)[nH]1)[n+](Cc1ccccc1)cn2[C@@H]1O[C@H](CO[PH](=O)[O-])[C@@H](O)[C@H]1O`, the IC50 was found to be 200 µM.
As for `CNc1nc2c(ncn2[C@@H]2O[C@H](CO)C(O)[C@H]2O)c(=O)[nH]1` (single isomer, unassigned), the IC50 was over 400 µM.
`Nc1nc2c(ncn2[C@@H]2O[C@H](CO[PH](=O)O)C(O)[C@H]2O)c(=O)[nH]1` (single isomer, unassigned) returned an IC50 of 130 µM.
The value for `CN(C)c1nc2c(ccn2[C@@H]2O[C@H](CO)C(O)[C@H]2O)c(=O)[nH]1` (single isomer, unassigned) was over 400 µM.
`Cc1ccc(SNc2nc3c(ncn3[C@@H]3O[C@H](CO)C(O)[C@H]3O)c(=O)[nH]2)cc1` (single isomer, unassigned): the IC50 was over 400 µM.
Next, `C[n+]1cn([C@@H]2O[C@H](CO)[C@@H](O)[C@H]2O)c2nc(N)nc([S-])c21`: over 400 µM; `C[n+]1cn([C@H]2CC(O)[C@@H](COP(=O)(O)OP(=O)([O-])OP(=O)(O)O)O2)c2nc(N)[nH]c(=O)c21` (single isomer, unassigned): 4 µM.
Turning to `CC[n+]1cn([C@@H]2O[C@H](COP(=O)([O-])O)C(O)[C@H]2O)c2nc(N)[nH]c(=O)c21` (single isomer, unassigned), the IC50 was found to be 100 µM. Against the preceding compound, the IC50 is about 25-fold higher.
Turning to `Cn1cnc2c(c1=O)[n+](C)cn2[C@@H]1O[C@H](CO)[C@@H](O)[C@H]1O`, the IC50 is over 400 µM.
For `C[n+]1cn([C@@H]2O[C@H](CO)C(O)[C@H]2O)c2nc(N)[nH]c(=O)c21` (single isomer, unassigned), the IC50 is over 400 µM.
As to `C=CC[n+]1cn([C@@H]2O[C@H](COP(=O)([O-])O)C(O)[C@H]2O)c2nc(N)[nH]c(=O)c21` (single isomer, unassigned), the IC50 amounted to 220 µM.
